# Test results from PubChem BioAssay (NCI).
#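 Assay format: 96-well plates, 48-hour exposure. GI50 = concentration required for 50% inhibition of growth. The concentration for full growth arrest is given as TGI.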
# Test system: K-562 leukemia
# Experiment: NCI anticancer screen, dose series, 48 h
Structure (SMILES),TGI [µM],GI50 [nM]
CCOC(=O)C1=NN(c2ccc(C)cc2)C2=CC(C)=NN(C)C(=S)N21,> 100,
O=C(c1cccs1)N(C(=S)OC12CC3CC(CC(C3)C1)C2)c1ccccc1,> 100,
C(=N\NC1=NCCN1)/c1ccc(-c2cn3cc(/C=N/NC4=NCCN4)ccc3n2)cc1,42.5,
CC1CC[C@@]2(OC1)OC1C[C@H]3[C@@H]4CC=C5CC(OC6OC(CO)C(OC7OC(CO)C(O)C(OC8OCC(O)C(O)C8O)C7OC7OC(CO)C(O)C(O)C7O)C(O)C6O)CCC5(C)[C@H]4CCC3(C)C1[C@@H]2C (stereo partly drawn),17.7,
Nc1ccccc1S(=O)(=O)c1ccccc1,> 100,
Cc1c(N2C(=O)CS(=O)(=O)C2c2cccc(Oc3ccccc3)c2)c(=O)n(-c2ccccc2)n1C (stereo not drawn),> 100,
COc1cc2c(ccc3c4cc(OC)c(OC)cc4c[n+](C)c23)cc1O,> 75,
CNC(=O)OCc1c(CO)nc(SC)n1C,> 100,
CN(C)CC(CC1=C(CC(CN(C)C)N(C)C)CCC1)N(C)C (stereo not drawn),> 100,
CCC1CN(C(=O)c2ccccc2)C(Cc2c[nH]c3ccccc23)C(=O)C1CC(=O)OC (stereo not drawn),> 100,
CC12CC3OC(=O)C1COC14OC5(C2C1=O)C(O)(CCC1C4CC(O)C2(O)CC=CC(=O)C12C)C(=O)OC35C (stereo not drawn),> 100,
NC(=O)c1c(NC(=O)c2ccccn2)sc2c1CCC(=O)C2,> 100,1540
COc1ccc(C(=O)/C=C/c2cccc([N+](=O)[O-])c2)c(OC)c1,3.08,999
CCOC(=O)C(NC(=O)c1ccco1)(Nc1nc2ccc(OCC)cc2s1)C(F)(F)F (stereo not drawn),> 100,
CCC(C)C1=C(OC(C)=O)[N+]2([O-])Oc3ccc(-c4c(OC(C)=O)c(OC(C)=O)c(-c5ccc(OC(C)=O)cc5)c(OC(C)=O)c4OC(C)=O)cc3OC2(C(C)CC)C(=O)N1OC(C)=O (stereo not drawn),39.7,
O=C(O)C1C2CCC(O2)C1C(=O)Nc1cccc2cccnc12 (stereo not drawn),> 100,
COc1cccc2c1Cc1cc(-c3ccccc3)[n+](C)n1-2,> 100,
O=C(OCN1C(=O)C2C3C=CC(C2C1=O)C1C2C(=O)N(COC(=O)C4CCCN4)C(=O)C2C31)C1CCCN1 (stereo not drawn),> 100,
O=C(C[n+]1ccc2ccccc2c1)c1ccc2ccc3ccccc3c2c1,1.99,
NCCCCc1cc(O)c2c(c1O)C(=O)c1ccccc1C2=O,17.3,
Cc1ccccc1C(=O)N/N=C/c1ccc(Sc2nccn2C)c([N+](=O)[O-])c1,> 100,
CCn1c(-c2ccc(N=NNc3ccc(-c4n[nH]c(=S)n4CC)cc3)cc2)n[nH]c1=S,> 100,
CC(=O)C1=C(C)N(c2ccc(C)cc2)C2(O)C=CC(=O)C3C(=O)N(c4ccccc4)C(=O)C132 (stereo not drawn),66.3,
COc1ccc2c(c1)[nH]c1c(/C=C/c3ccccc3)nccc12,> 100,
Clc1cc2c(cc1Cl)CC(NCCN1CCCC1)CC2 (stereo not drawn),48.9,
[N-]=[N+]=CC(=O)c1ccccc1C#CCCc1ccccc1,> 100,
CCN(CC(=O)O)C(=O)c1cccnc1,> 100,
CCCCCCCCC/C=C/C=C/C(=O)NCC(=O)NC1C(O)C(O)C(Nc2ncnc3nc[nH]c23)OC1C(O)CO (stereo not drawn),> 100,360
COc1nc(C#CC2(O)CCCCC2)nc(OC)n1,> 100,
C[C@H](CCC(=O)O)[C@H]1CC[C@@]2(C)[C@@H]3C(=O)C[C@H]4C(C)(C)[C@@H](O)CC[C@]4(C)[C@H]3C(=O)C[C@]12C,> 100,

# Test system: NCI-H23 lung
# Experiment: NCI anticancer screen, dose series, 48 h
Structure (SMILES),TGI [µM],GI50 [nM]
CCOC(=O)C1=NN(c2ccc(C)cc2)C2=CC(C)=NN(C)C(=S)N21,> 100,
O=C(c1cccs1)N(C(=S)OC12CC3CC(CC(C3)C1)C2)c1ccccc1,> 100,
C(=N\NC1=NCCN1)/c1ccc(-c2cn3cc(/C=N/NC4=NCCN4)ccc3n2)cc1,> 100,
CC1CC[C@@]2(OC1)OC1C[C@H]3[C@@H]4CC=C5CC(OC6OC(CO)C(OC7OC(CO)C(O)C(OC8OCC(O)C(O)C8O)C7OC7OC(CO)C(O)C(O)C7O)C(O)C6O)CCC5(C)[C@H]4CCC3(C)C1[C@@H]2C (stereo partly drawn),11.7,
Nc1ccccc1S(=O)(=O)c1ccccc1,> 100,
Cc1c(N2C(=O)CS(=O)(=O)C2c2cccc(Oc3ccccc3)c2)c(=O)n(-c2ccccc2)n1C (stereo not drawn),> 100,
COc1cc2c(ccc3c4cc(OC)c(OC)cc4c[n+](C)c23)cc1O,68.3,
CNC(=O)OCc1c(CO)nc(SC)n1C,> 100,
CN(C)CC(CC1=C(CC(CN(C)C)N(C)C)CCC1)N(C)C (stereo not drawn),> 100,
CCC1CN(C(=O)c2ccccc2)C(Cc2c[nH]c3ccccc23)C(=O)C1CC(=O)OC (stereo not drawn),> 100,
CC12CC3OC(=O)C1COC14OC5(C2C1=O)C(O)(CCC1C4CC(O)C2(O)CC=CC(=O)C12C)C(=O)OC35C (stereo not drawn),> 100,
O=c1cccccc1[O-].O=c1cccccc1[O-].[O]=[U+2]=[O],> 100,
COc1ccc(C(=O)/C=C/c2cccc([N+](=O)[O-])c2)c(OC)c1,> 50,2610
CCOC(=O)C(NC(=O)c1ccco1)(Nc1nc2ccc(OCC)cc2s1)C(F)(F)F (stereo not drawn),> 100,
CCC(C)C1=C(OC(C)=O)[N+]2([O-])Oc3ccc(-c4c(OC(C)=O)c(OC(C)=O)c(-c5ccc(OC(C)=O)cc5)c(OC(C)=O)c4OC(C)=O)cc3OC2(C(C)CC)C(=O)N1OC(C)=O (stereo not drawn),> 50,
O=C(O)C1C2CCC(O2)C1C(=O)Nc1cccc2cccnc12 (stereo not drawn),> 100,

Structure (SMILES),TGI [µM],GI50 [nM]
COc1cccc2c1Cc1cc(-c3ccccc3)[n+](C)n1-2,32.4,
O=C(OCN1C(=O)C2C3C=CC(C2C1=O)C1C2C(=O)N(COC(=O)C4CCCN4)C(=O)C2C31)C1CCCN1 (stereo not drawn),> 100,
O=C(C[n+]1ccc2ccccc2c1)c1ccc2ccc3ccccc3c2c1,17.6,
NCCCCc1cc(O)c2c(c1O)C(=O)c1ccccc1C2=O,28.4,
Cc1ccccc1C(=O)N/N=C/c1ccc(Sc2nccn2C)c([N+](=O)[O-])c1,> 100,
CCn1c(-c2ccc(N=NNc3ccc(-c4n[nH]c(=S)n4CC)cc3)cc2)n[nH]c1=S,6.26,
CC(=O)C1=C(C)N(c2ccc(C)cc2)C2(O)C=CC(=O)C3C(=O)N(c4ccccc4)C(=O)C132 (stereo not drawn),46.1,
COc1ccc2c(c1)[nH]c1c(/C=C/c3ccccc3)nccc12,35.9,
Clc1cc2c(cc1Cl)CC(NCCN1CCCC1)CC2 (stereo not drawn),30.9,
[N-]=[N+]=CC(=O)c1ccccc1C#CCCc1ccccc1,89.2,
CCN(CC(=O)O)C(=O)c1cccnc1,> 100,
NCCSC(c1ccccc1)c1ccccc1,> 100,
CCCCCCCCC/C=C/C=C/C(=O)NCC(=O)NC1C(O)C(O)C(Nc2ncnc3nc[nH]c23)OC1C(O)CO (stereo not drawn),,24.7
COc1nc(C#CC2(O)CCCCC2)nc(OC)n1,27.1,
C[C@H](CCC(=O)O)[C@H]1CC[C@@]2(C)[C@@H]3C(=O)C[C@H]4C(C)(C)[C@@H](O)CC[C@]4(C)[C@H]3C(=O)C[C@]12C,> 100,

# Test system: KM12 colon
# Experiment: NCI anticancer screen, dose series, 48 h
row,Structure (SMILES),TGI [µM]
1,CCOC(=O)C1=NN(c2ccc(C)cc2)C2=CC(C)=NN(C)C(=S)N21,> 100
2,O=C(c1cccs1)N(C(=S)OC12CC3CC(CC(C3)C1)C2)c1ccccc1,> 100
3,C(=N\NC1=NCCN1)/c1ccc(-c2cn3cc(/C=N/NC4=NCCN4)ccc3n2)cc1,> 100
4,CC1CC[C@@]2(OC1)OC1C[C@H]3[C@@H]4CC=C5CC(OC6OC(CO)C(OC7OC(CO)C(O)C(OC8OCC(O)C(O)C8O)C7OC7OC(CO)C(O)C(O)C7O)C(O)C6O)CCC5(C)[C@H]4CCC3(C)C1[C@@H]2C (stereo partly drawn),10.5
5,Nc1ccccc1S(=O)(=O)c1ccccc1,> 100
6,Cc1c(N2C(=O)CS(=O)(=O)C2c2cccc(Oc3ccccc3)c2)c(=O)n(-c2ccccc2)n1C (stereo not drawn),> 100
7,COc1cc2c(ccc3c4cc(OC)c(OC)cc4c[n+](C)c23)cc1O,> 75
8,CNC(=O)OCc1c(CO)nc(SC)n1C,> 100
